The values that follow come from US20090221624A1, “4-AMINOQUINOLINE COMPOUNDS FOR TREATING VIRUS-RELATED CONDITIONS” (priority 2005, published 2009).

Like-named read-outs stand apart in the source and are kept apart here.

The test system of data set [1] is YFV (YF-hRuPac cells). Put plainly: microbe, parasite or virus in culture. The format is cell-based, yellow fever virus. To be noted: for inhibition at 25 µM / EC50: Yellow fever virus; for inhibition at 25 µM: 24 h, read-out: YFV Inh; for EC50: read-out: YFV EC50.
The test system of data set [2] is RSV minigenome. As to the kind of experiment: RSV minigenome-dependent β-galactosidase expression assay (RSV β-Gal). The class given is cell-based, respiratory syncytial virus. As to conditions: for EC50 / inhibition at 25 µM: human respiratory syncytial virus; for EC50: RSV; for inhibition at 25 µM: primary screening, 25 μM final concentration, 24 hours, percent inhibition of viral replication, read-out: RSV Inh; for RSV TI: therapeutic index CC50/EC50, RSV.

Data set [3] deals with HCV replicon (Clone A cells, Huh7, subgenomic hepatits C virus RNA). Put plainly: HCV Neo screening assay (HCV replicon, NPTII ELISA). The class given is cell-based, hepatitis C virus. To be noted: for EC50 / inhibition at 25 µM: Hepatitis C virus, Huh-7; for EC50: Secondary Data, HCV; for inhibition at 25 µM: primary screening, 25 μM final concentration, 24 hours, percent inhibition of viral replication, read-out: HCV Inh; for HCV TI: therapeutic index CC50/EC50, HCV.

Data set [4] relates to WNV (WN-hRuPac cells). Put plainly: WNV antiviral activity, WN-hRuPac cells, Renilla luciferase. The class given is cell-based, West Nile virus. As to conditions: for EC50 / inhibition at 25 µM: West Nile virus; for EC50: read-out: WNV EC50; for inhibition at 25 µM: primary screening, 25 μM final concentration, 24 hours, percent inhibition of viral replication, read-out: WNV Inh; for WNV TI: therapeutic index CC50/EC50, WNV.

The test system of data set [5] is DNG (D2-hRuPac cells). As to the kind of experiment: DNG antiviral activity, D2-hRuPac cells, Renilla luciferase. The class given is cell-based, Dengue fever virus. To be noted: Dengue virus, secondary screening.
Data set [6] can be described thus: in vitro.
In data set [7] the test system is EBOV minigenome. As to the kind of experiment: microbe, parasite or virus in culture. The class given is cell-based, Ebola virus. As to conditions: Zaire ebolavirus; for inhibition at 25 µM: 24 h, read-out: EBOV Inh; for EC50: read-out: EBOV EC50.
Data set [8] has as its system SINV (SR19-F-luc cells). Put plainly: SINV antiviral activity, SR19-F-luc cells, Firefly luciferase. The format is cell-based. To be noted: Sindbis virus; for inhibition at 25 µM: primary screening, 25 μM final concentration, 24 hours, percent inhibition of viral replication, read-out: SINV Inh; for EC50: secondary screening, SR19-F-luc cells.
Where [9] appears, read: Secondary Data, read-out: RSV EC50.

For `c1ccc2cc(Nc3c4ccccc4nc4ccccc34)ccc2c1` [Compound 1], the “YFV TI” value in data set [1] was 7.5. Besides, the inhibition at 25 µM in data set [1] was determined as 77.5%; in data set [2], 99.9%; in data set [3], 177%; in data set [4], 65.4%; in data set [7], 39.8%; in data set [8] it was 34.1%. The EC50 in data set [1] was determined as 6.34 µM; in data set [2] (setting [9]), 1.89 µM; in data set [3], 6.52 µM; in data set [4] (Secondary Data, WNV) it was 5.7 µM; in data set [5] it was 7.17 µM; in data set [7], 35.8 µM. Besides, it took 28.1 µM to reach a half-maximal effect in data set [8] (EC50). Besides, the “RSV TI” value in data set [2] was 25.16. Moreover, the “HCV TI” value in data set [3] was 0.59. For the same molecule, in data set [4], the “WNV TI” value came to 8.34. The CC50 in data set [6] (DNG CC50) stood at 47.6 µM; in data set [6] (EBOV CC50) it was 47.6 µM; in data set [6] (HCV CC50), 3.83 µM; in data set [6] (RSV CC50) it was 47.6 µM; in data set [6] (SINV CC50), 47.6 µM; in data set [6] (WNV CC50) it was 47.6 µM. This molecule registered a CC50 in data set [6] (YFV CC50) of 47.6 µM.

`CCc1ccccc1Nc1c2ccccc2nc2ccccc12` [Compound 2]: the “YFV TI” value in data set [1] is on record as 4.95. In addition, the inhibition at 25 µM turned out to be 71.8% in data set [1]; 99.8% in data set [2]; 154% in data set [3]; 49.6% in data set [4]; 20.1% in data set [7]; 70.2% in data set [8]. Also, the EC50 was 6.65 µM in data set [1]; 1.3 µM in data set [2] (setting [9]); 8 µM in data set [3]; 17.8 µM in data set [4] (Secondary Data, WNV); 21.3 µM in data set [5]; 38.7 µM in data set [7]. The molecule also displayed an EC50 in data set [8] of 19.3 µM. Besides, the “RSV TI” value in data set [2] was 25.33. The “HCV TI” value in data set [3] is given as 0.77. The “WNV TI” value in data set [4] is reported as 1.85. Moreover, the CC50 in data set [6] (DNG CC50) is 32.9 µM; in data set [6] (EBOV CC50), 32.9 µM; in data set [6] (HCV CC50), 6.12 µM; in data set [6] (RSV CC50), 32.9 µM; in data set [6] (SINV CC50), 32.9 µM; in data set [6] (WNV CC50), 32.9 µM. Also, the CC50 in data set [6] (YFV CC50) came to 32.9 µM.

Consider `Cc1ccc2nc(C)cc(Nc3ccccc3)c2c1` [Compound 3], for which the “YFV TI” value in data set [1] turned out to be 2.84. The inhibition at 25 µM in data set [1] is 41.7%; in data set [2], 86.3%; in data set [3] it was 32.1%; in data set [4], 38.7%; in data set [7] it was -44.2%; in data set [8] it was 76.1%. The EC50 came to 18.4 µM in data set [1]; 11.3 µM in data set [2] (read-out: RSV EC50, Secondary Data); 29.9 µM in data set [4]; 34.2 µM in data set [5]; 65.2 µM in data set [7]; 1.29 µM in data set [8]. Also, the “RSV TI” value in data set [2] was 4.63. The “WNV TI” value in data set [4] worked out at 1.75. Besides, the CC50 in data set [6] (DNG CC50) was 52.3 µM; in data set [6] (EBOV CC50), 52.3 µM; in data set [6] (HCV CC50), 32.3 µM; in data set [6] (RSV CC50), 52.3 µM; in data set [6] (SINV CC50), 52.3 µM; in data set [6] (WNV CC50) it was 52.3 µM. The same molecule had a CC50 in data set [6] (YFV CC50) of 52.3 µM.

On to `CCOC(=O)c1ccc(Nc2cc(C)nc3c2ccc2ccccc23)cc1` [Compound 4], for which, in data set [1], the “YFV TI” value was found to be 17.1. Also, the inhibition at 25 µM in data set [1] was 81.7%; in data set [2], 47.7%; in data set [3] it was 105%; in data set [4], 28.4%; in data set [7], 6.57%; in data set [8] it was -22.2%. Further, the 50% effective concentration (EC50) is 4.26 µM in data set [1]; 37 µM in data set [2] (setting [9]); 15.6 µM in data set [3]; at least 75 µM in data set [4] (Secondary Data, WNV); 32.7 µM in data set [5]; 59.3 µM in data set [7]. The molecule further displayed an EC50 in data set [8] of at least 75 µM. Besides, the “RSV TI” value in data set [2] is 1.97. Besides, the “HCV TI” value in data set [3] was determined as 2.08. Besides, the “WNV TI” value in data set [4] turned out to be 0.97. Moreover, the CC50 in data set [6] (DNG CC50) was 72.9 µM; in data set [6] (EBOV CC50), 72.9 µM; in data set [6] (HCV CC50) it was 32.5 µM; in data set [6] (RSV CC50), 72.9 µM; in data set [6] (SINV CC50) it was 72.9 µM; in data set [6] (WNV CC50), 72.9 µM. Also, the CC50 in data set [6] (YFV CC50) is 72.9 µM.

Regarding `c1cncc(CNc2c3ccccc3nc3ccccc23)c1` [Compound 5], the “YFV TI” value in data set [1] is listed as 2.57. The inhibition at 25 µM in data set [1] was determined as 84.7%; in data set [2], 98.5%; in data set [3], 211%; in data set [4] it was 89.3%; in data set [7] it was 86%; in data set [8], 29.6%. The EC50 in data set [1] is 11.1 µM; in data set [2] (setting [9]), 2.8 µM; in data set [3] it was 1.76 µM; in data set [4] (Secondary Data, WNV), 7.15 µM; in data set [5], 3.64 µM; in data set [7], 15.3 µM. Further, in data set [8], the EC50 stood at 7.02 µM. Moreover, the “RSV TI” value in data set [2] is reported as 10.2. Further, the “HCV TI” value in data set [3] is on record as 5.49. The “WNV TI” value in data set [4] was 3.99. For the same molecule, the CC50 was determined as 28.6 µM in data set [6] (DNG CC50); 28.6 µM in data set [6] (EBOV CC50); 9.67 µM in data set [6] (HCV CC50); 28.6 µM in data set [6] (RSV CC50); 28.6 µM in data set [6] (SINV CC50); 28.6 µM in data set [6] (WNV CC50). In addition, the CC50 in data set [6] (YFV CC50) worked out at 28.6 µM.

As to `COc1ccc(Nc2cc(C)nc3c2ccc2ccccc23)cc1` [Compound 7], the inhibition at 25 µM in data set [1] was determined as 64.1%; in data set [2], 76.9%; in data set [3], 104%; in data set [4], 34.3%; in data set [7], 85.3%; in data set [8], 7.58%. The EC50 in data set [1] was at least 75 µM; in data set [2] (setting [9]), 10 µM; in data set [3], 5.87 µM; in data set [4] (Secondary Data, WNV) it was at least 75 µM; in data set [5] it was 17 µM; in data set [7], 10.8 µM. Moreover, the EC50 in data set [8] was at least 75 µM. For the same molecule, the “RSV TI” value in data set [2] is given as 7.5. Besides, the “HCV TI” value in data set [3] stood at 2.39. Moreover, the CC50 in data set [6] (DNG CC50) was at least 75 µM; in data set [6] (EBOV CC50), at least 75 µM; in data set [6] (HCV CC50) it was 14 µM; in data set [6] (RSV CC50), at least 75 µM; in data set [6] (SINV CC50), at least 75 µM; in data set [6] (WNV CC50) it was at least 75 µM. For the same molecule, the CC50 in data set [6] (YFV CC50) is at least 75 µM.

As to `Cc1cc(NNC(=O)OCc2ccccc2)c2ccccc2n1` [Compound 78], the “YFV TI” value in data set [1] came out at 2.95. For the same molecule, the EC50 in data set [1] was 17.3 µM; in data set [2] (setting [9]), 1.38 µM; in data set [4] (Secondary Data, WNV), at least 75 µM; in data set [5], 57 µM; in data set [7], 75 µM; in data set [8], 7.54 µM. Further, in data set [2], the “RSV TI” value was 37.03. In addition, the “WNV TI” value in data set [4] is 0.68. The CC50 is 51.1 µM in data set [6] (DNG CC50); 51.1 µM in data set [6] (EBOV CC50); at least 75 µM in data set [6] (HCV CC50); 51.1 µM in data set [6] (RSV CC50); 51.1 µM in data set [6] (SINV CC50); 51.1 µM in data set [6] (WNV CC50). In data set [6] (YFV CC50), this molecule gave a CC50 of 51.1 µM. Moreover, the inhibition at 25 µM in data set [7] was found to be 42.3%.

By EC50 is commonly meant the midpoint of the concentration-response curve.
